Results on one compound are retold here after patent publication US11572590B2, “Methods for evaluating tumor cell spheroids using 3D microfluidic cell culture device” (Dana-Farber Cancer Institute, Inc., priority 2017, dated 2023).

Like-named read-outs stand apart in the source and are kept apart here.

Assay in all cases: SelectScreen Kinase Profiling, single point inhibition and IC50 for off-target kinases
Type in all cases: biochemical

The target in assay [1] is off-target kinases (Homo sapiens, UniProt P35968). The conditions noted are these: KDR (VEGFR2), ATP Km app, ZLYTE.
off-target kinases (Homo sapiens, UniProt P35968), sequence (P35968 20-1356): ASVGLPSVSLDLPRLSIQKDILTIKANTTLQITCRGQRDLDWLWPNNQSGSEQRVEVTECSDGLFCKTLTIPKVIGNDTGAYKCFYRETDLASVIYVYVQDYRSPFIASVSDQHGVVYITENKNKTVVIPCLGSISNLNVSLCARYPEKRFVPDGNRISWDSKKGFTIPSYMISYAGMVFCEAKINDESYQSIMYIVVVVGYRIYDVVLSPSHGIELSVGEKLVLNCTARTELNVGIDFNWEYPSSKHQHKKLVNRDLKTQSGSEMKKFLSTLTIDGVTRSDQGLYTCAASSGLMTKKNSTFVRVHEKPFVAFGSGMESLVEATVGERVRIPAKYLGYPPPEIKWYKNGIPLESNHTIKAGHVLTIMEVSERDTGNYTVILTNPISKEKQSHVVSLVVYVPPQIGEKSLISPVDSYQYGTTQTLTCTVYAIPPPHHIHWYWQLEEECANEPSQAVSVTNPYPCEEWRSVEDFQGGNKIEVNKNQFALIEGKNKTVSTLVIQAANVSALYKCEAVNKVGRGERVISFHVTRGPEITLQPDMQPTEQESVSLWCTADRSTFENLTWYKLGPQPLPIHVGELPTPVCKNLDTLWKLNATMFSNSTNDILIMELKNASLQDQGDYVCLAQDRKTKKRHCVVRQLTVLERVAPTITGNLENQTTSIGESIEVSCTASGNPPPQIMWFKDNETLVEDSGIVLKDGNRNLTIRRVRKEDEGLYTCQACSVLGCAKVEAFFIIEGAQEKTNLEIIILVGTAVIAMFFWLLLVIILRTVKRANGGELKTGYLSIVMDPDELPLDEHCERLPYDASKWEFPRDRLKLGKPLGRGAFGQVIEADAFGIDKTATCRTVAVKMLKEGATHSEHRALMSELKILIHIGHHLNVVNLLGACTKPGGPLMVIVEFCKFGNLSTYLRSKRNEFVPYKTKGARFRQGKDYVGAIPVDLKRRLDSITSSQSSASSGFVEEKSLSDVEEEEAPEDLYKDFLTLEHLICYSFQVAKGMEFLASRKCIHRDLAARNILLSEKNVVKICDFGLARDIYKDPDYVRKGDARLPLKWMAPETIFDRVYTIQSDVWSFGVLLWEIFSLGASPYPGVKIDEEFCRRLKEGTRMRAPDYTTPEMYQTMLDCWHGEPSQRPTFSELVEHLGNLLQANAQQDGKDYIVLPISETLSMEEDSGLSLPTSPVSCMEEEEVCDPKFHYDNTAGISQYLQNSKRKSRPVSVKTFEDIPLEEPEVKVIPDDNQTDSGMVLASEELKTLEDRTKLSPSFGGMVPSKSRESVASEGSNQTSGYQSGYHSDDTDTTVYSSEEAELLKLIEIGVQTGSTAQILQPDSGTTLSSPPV
Assay [2] has as its target T1, off-target kinases (Homo sapiens, UniProt Q8WTQ7).
T1 sequence (Q8WTQ7 1-553): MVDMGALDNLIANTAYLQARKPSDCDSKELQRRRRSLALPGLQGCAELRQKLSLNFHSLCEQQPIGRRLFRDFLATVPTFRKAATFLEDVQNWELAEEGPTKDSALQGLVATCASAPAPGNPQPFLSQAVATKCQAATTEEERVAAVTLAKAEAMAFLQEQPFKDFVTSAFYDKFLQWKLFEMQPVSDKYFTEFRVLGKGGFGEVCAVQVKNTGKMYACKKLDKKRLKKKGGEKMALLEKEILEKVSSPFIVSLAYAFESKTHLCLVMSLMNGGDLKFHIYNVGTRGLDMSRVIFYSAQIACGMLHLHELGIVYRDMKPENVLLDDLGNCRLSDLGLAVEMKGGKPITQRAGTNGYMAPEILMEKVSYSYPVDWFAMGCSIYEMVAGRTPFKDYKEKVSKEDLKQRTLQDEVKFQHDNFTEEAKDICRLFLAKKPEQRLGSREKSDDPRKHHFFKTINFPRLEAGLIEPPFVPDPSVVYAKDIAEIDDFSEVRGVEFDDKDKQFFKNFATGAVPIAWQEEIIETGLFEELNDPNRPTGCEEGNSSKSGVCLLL
Conditions: GRK7, ZLYTE, ATP Km app.

The target in assay [3] is off-target kinases (Homo sapiens, UniProt P29376). The conditions noted are these: LTK (TYK1), ZLYTE, ATP Km app.
off-target kinases (Homo sapiens, UniProt P29376), sequence (P29376 17-864): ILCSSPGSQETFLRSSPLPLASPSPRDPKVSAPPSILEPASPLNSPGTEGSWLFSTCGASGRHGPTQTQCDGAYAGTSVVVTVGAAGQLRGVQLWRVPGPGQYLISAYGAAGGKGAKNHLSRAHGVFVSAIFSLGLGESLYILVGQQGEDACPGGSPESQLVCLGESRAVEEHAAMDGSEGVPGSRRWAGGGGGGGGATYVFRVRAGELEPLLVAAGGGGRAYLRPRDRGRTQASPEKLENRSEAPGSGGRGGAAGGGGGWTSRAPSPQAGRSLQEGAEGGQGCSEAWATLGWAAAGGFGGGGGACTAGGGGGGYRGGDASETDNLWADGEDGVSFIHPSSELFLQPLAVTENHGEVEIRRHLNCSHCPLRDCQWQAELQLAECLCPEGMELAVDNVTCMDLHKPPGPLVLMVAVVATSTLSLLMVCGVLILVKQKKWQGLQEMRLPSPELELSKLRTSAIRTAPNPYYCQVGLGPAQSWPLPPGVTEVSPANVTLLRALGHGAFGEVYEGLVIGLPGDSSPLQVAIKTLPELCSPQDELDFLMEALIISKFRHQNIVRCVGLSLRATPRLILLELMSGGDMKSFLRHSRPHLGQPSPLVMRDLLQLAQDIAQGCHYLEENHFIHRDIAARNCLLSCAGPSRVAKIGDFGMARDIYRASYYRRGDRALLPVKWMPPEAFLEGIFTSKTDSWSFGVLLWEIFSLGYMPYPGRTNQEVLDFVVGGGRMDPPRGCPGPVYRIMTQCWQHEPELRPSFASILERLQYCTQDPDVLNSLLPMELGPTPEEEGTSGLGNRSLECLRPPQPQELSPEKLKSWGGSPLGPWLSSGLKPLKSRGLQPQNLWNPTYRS
The target in assay [4] is off-target kinases (Homo sapiens, UniProt P53667). The conditions noted are these: LIMK1, LanthaScreen Binding.
off-target kinases (Homo sapiens, UniProt P53667), sequence (P53667 whole entry): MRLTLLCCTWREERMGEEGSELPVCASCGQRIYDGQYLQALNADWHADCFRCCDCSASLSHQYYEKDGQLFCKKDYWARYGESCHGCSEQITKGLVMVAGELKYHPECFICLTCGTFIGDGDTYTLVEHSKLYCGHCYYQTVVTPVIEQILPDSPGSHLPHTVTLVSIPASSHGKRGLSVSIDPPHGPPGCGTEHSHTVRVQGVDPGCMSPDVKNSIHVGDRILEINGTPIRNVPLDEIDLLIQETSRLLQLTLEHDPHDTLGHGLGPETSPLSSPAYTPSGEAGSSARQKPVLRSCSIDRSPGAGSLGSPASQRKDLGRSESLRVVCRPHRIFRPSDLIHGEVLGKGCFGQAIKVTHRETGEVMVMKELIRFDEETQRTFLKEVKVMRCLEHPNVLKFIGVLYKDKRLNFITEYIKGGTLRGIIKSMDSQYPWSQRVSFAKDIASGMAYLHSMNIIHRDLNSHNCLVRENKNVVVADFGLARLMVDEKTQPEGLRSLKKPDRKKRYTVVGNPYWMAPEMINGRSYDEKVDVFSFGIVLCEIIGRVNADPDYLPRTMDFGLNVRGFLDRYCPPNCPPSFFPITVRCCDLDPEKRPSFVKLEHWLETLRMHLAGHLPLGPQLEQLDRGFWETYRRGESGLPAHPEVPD
For assay [5], the target named is off-target kinases (Homo sapiens, UniProt Q96SB4). Conditions: SRPK1, ZLYTE, ATP Km app.
off-target kinases (Homo sapiens, UniProt Q96SB4), sequence (Q96SB4 whole entry): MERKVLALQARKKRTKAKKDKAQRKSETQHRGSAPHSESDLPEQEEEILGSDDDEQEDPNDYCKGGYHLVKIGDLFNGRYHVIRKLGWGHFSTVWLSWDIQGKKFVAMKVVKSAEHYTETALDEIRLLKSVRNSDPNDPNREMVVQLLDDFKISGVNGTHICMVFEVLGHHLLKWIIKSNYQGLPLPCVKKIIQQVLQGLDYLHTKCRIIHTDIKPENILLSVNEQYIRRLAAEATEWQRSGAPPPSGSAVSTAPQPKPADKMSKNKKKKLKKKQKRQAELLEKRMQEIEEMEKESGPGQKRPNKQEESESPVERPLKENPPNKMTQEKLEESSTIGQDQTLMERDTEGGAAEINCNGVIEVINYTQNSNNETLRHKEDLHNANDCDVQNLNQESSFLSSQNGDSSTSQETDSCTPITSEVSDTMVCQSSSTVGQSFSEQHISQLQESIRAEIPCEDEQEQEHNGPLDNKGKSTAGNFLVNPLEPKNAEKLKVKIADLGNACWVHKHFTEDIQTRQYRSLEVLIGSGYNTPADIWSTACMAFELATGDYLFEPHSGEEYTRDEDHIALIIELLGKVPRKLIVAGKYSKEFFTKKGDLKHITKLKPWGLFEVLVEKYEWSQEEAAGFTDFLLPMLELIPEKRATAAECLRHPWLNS
The target in assay [6] is off-target kinases (Homo sapiens, UniProt Q9UM73, C1156Y). Conditions: ALK C1156Y (mutant), LanthaScreen Binding.
off-target kinases (Homo sapiens, UniProt Q9UM73, C1156Y), sequence (Q9UM73 19-1620 C1156Y): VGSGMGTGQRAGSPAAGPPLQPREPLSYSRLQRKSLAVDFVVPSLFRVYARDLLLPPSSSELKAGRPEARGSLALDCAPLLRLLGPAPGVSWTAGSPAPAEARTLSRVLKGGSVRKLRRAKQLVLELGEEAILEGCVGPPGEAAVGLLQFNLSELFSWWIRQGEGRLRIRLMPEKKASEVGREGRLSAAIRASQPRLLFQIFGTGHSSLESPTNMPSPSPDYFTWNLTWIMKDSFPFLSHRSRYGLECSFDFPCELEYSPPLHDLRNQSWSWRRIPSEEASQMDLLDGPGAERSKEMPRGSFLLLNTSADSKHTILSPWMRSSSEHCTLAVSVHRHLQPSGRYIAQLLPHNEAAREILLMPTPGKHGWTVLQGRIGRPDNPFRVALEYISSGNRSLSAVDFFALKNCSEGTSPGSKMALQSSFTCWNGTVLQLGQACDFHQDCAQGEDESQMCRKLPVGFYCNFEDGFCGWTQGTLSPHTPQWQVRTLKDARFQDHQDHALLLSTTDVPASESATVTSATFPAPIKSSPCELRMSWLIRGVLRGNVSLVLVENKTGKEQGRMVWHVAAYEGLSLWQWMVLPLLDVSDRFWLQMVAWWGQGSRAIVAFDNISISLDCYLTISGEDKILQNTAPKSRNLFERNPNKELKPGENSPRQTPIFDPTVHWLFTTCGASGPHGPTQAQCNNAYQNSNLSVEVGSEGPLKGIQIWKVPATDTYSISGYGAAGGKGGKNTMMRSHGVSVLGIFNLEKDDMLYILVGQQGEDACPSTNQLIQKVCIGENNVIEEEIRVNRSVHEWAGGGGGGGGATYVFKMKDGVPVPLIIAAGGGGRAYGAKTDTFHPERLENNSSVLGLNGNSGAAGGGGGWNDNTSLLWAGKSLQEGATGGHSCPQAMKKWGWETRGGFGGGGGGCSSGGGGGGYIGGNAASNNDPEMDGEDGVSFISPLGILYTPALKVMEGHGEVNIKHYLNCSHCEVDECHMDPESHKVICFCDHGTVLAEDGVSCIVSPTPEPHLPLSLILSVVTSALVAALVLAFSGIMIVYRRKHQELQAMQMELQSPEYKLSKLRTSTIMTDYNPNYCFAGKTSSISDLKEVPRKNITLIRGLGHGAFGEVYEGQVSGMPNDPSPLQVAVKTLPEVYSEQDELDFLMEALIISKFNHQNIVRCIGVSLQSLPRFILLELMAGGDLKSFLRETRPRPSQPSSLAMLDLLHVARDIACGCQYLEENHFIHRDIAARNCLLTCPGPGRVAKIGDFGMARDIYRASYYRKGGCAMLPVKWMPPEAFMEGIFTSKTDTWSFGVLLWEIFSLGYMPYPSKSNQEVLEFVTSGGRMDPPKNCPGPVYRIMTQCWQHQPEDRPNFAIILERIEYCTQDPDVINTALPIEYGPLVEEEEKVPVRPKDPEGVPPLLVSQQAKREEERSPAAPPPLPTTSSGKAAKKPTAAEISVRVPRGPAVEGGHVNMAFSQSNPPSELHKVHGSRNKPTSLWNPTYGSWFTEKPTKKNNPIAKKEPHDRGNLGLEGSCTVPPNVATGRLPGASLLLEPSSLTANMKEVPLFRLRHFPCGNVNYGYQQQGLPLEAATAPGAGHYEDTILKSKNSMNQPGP
The target of assay [7] is T2, off-target kinases (Homo sapiens, UniProt Q05513).
T2 sequence (Q05513 1-592): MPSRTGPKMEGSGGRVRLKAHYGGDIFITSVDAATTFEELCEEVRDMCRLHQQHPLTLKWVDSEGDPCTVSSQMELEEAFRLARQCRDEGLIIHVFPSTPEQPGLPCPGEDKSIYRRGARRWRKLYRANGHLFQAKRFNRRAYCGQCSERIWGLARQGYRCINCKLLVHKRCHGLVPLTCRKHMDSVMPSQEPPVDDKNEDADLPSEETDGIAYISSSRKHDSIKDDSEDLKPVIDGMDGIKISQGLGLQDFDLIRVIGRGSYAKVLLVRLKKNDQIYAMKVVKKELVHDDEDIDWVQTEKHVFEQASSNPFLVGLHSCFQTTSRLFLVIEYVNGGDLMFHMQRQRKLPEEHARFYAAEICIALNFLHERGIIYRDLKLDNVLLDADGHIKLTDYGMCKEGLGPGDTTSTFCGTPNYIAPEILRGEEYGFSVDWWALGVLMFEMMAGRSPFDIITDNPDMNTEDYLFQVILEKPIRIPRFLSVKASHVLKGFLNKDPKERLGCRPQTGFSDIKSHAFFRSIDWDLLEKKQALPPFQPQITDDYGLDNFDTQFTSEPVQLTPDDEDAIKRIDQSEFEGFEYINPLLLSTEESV
Conditions: PRKCZ (PKC zeta); Cmpd1 1000 μM; ATP Km app; ZLYTE.

For the compound `N#Cc1cc(-c2ncnc(Nc3ccc(N4CCN(C5COC5)CC4)cc3)n2)ccc1OC1CCOCC1` [Compound 1, 5-(4-((4-(4-(oxetan-3-yl)piperazin-1-yl)phenyl)amino)-1,3,5-triazin-2-yl)-2-((tetrahydro-2H-pyran-4-yl)oxy)benzonitrile], the inhibition at off-target kinases [1] (read-out: % Inhibition 1) came to 51%; on off-target kinases [1] (read-out: % Inhibition 2), 53%; at off-target kinases [1] (read-out: % Inhibition Avg), 52%; at off-target kinases [2] (read-out: % Inhibition 1), 3%; at off-target kinases [2] (read-out: % Inhibition 2), 5%; on off-target kinases [2] (read-out: % Inhibition Avg), 4%. The inhibition came to 5% on off-target kinases [3] (read-out: % Inhibition 1); 7% on off-target kinases [3] (read-out: % Inhibition 2); 6% at off-target kinases [3] (read-out: % Inhibition Avg); 40% at off-target kinases [4] (read-out: % Inhibition 1); 39% at off-target kinases [4] (read-out: % Inhibition 2); 40% on off-target kinases [4] (read-out: % Inhibition Avg). Further, the inhibition on off-target kinases [5] (read-out: % Inhibition 1) is -1%; on off-target kinases [5] (read-out: % Inhibition 2), -2%; at off-target kinases [5] (read-out: % Inhibition Avg) it was -2%; at off-target kinases [6] (read-out: % Inhibition 1), 7%; on off-target kinases [6] (read-out: % Inhibition 2) it was 12%; on off-target kinases [6] (read-out: % Inhibition Avg) it was 9%. At off-target kinases [7], the “% Inhibition 1” value was −18%. Moreover, the “% Inhibition 2” value on off-target kinases [7] is listed as −16%. Moreover, the “% Inhibition Avg” value on off-target kinases [7] is −17%.
